pEC50: −log10 of the molar value.

This experiment relates to M17-TAU P301L cells. Kind of experiment: Tau-induced toxicity experiment: LDH leakage of retinoic acid incubated M17-TAU P301L cells. The class given is cell-based. The conditions noted are these: Homo sapiens, Neuroblastoma cell, 168 h; reduction of LDH activity of retinoic acid incubated M17-TAU P301L neuroblastoma cells; 7 days incubation; Promega Cytotox 96 assay. The text has this: A TAU expression plasmid was constructed by sub-cloning the cDNA of human TAU-P301L (encoding for TAU with proline 301 substituted by a leucine residue) into mammalian expression vector pcDNA3.1 resulting in plasmid pcDNA3.1-TAU P301L. Plasmids pcDNA3.1 and pcDNA3.1-TAU P301L were transfected to human neuroblastoma cells ([…]; ATCC No. CRL-2267) and independent clonal lines with the plasmids stably integrated into the genome were selected. […] Expression of the TAU P301L genes in the cell lines was confirmed by Western analysis.
In degenerated or dead cells lactate dehydrogenase (LDH) is leaked out of the cells into the extracellular environment due to a loss of plasma-membrane integrity. This principle was used to determine cytotoxicity by quantifying the level of leaked LDH into the growth medium.
The detailed method for determining TAU cytotoxicity was as follows: From appropriate precultures of M17-3.1 and M17-TAU(P301L) cells were seeded at 2500 cells/cm2 in Optimem Reduced Serum without phenol red (Gibco, Cat. 31985-047) supplemented with 1% fetal calf serum, 1 mM sodium pyruvate, 1× non-essential amino acids, 500 μg/ml G418 0.5× antibiotic/antimycotic. After 3 h of incubation at 37° C./5% CO2 1 volume of Optimem Reduced Serum (same as described above; except without fetal calf serum) supplemented with 2.5 μM retinoic acid (RA) was added. The cells were further incubated for 7 days. Subsequently, LDH activity was determined using Promega Cytotox 96 Non-Radioactive cytotoxicity assay, (Cat. G1780) according the supplier's instructions.
The M17-TAU P301L cell line made it possible to assess the ability of novel compounds to counteract TAU cytotoxicity. […] These measurements were used to calculate EC50 values of table 2.
Exemplary compounds of the present invention are shown in table 2, with their chemical name and their EC50 value (expressed in nM) as determined from example 75 in the Tau-induced toxicity experiment.
(LDH in the medium is a marker of cell lysis.)
Compound `N#Cc1ccc(-c2cccc(C(=O)NCCc3c[nH]c4ccc(Cl)cc34)c2)cc1` [Cpd052, N-(2-(5-chloro-1H-indol-3-yl)ethyl)-4′-cyanobiphenyl-3-carboxamide] gave a pEC50 of 6.95. The compound `N#Cc1ccc(-c2ccc(C(=O)NCCc3c[nH]c4ccc(Cl)cc34)cc2)cc1` [Cpd053, N-(2-(5-chloro-1H-indol-3-yl)ethyl)-4′-cyanobiphenyl-4-carboxamide] showed a pEC50 of 7.07. Under `O=C(NCCc1c[nH]c2ccc(Cl)cc12)c1ccccc1-c1ccccc1Cl` [Cpd054, 2′-chloro-N-(2-(5-chloro-1H-indol-3-yl)ethyl)biphenyl-2-carboxamide] stands 6.77; under `O=C(NCCc1c[nH]c2ccc(Cl)cc12)c1cccc(-c2ccccc2Cl)c1` [Cpd055, 2′-chloro-N-(2-(5-chloro-1H-indol-3-yl)ethyl)biphenyl-3-carboxamide], 6.80; under `O=C(NCCc1c[nH]c2ccc(Cl)cc12)c1ccccc1-c1cccc(Cl)c1` [Cpd057, 3′-chloro-N-(2-(5-chloro-1H-indol-3-yl)ethyl)biphenyl-2-carboxamide], 6.80. Under `O=C(NCCc1c[nH]c2ccc(Cl)cc12)c1cccc(-c2cccc(Cl)c2)c1` [Cpd058, 3′-chloro-N-(2-(5-chloro-1H-indol-3-yl)ethyl)biphenyl-3-carboxamide] stands 6.73; under `O=C(NCCc1c[nH]c2ccc(Cl)cc12)c1ccc(-c2cccc(Cl)c2)cc1` [Cpd059, 3′-chloro-N-(2-(5-chloro-1H-indol-3-yl)ethyl)biphenyl-4-carboxamide], 6.89; under `O=C(NCCc1c[nH]c2ccc(Cl)cc12)c1cccc(-c2ccc(Cl)cc2)c1` [Cpd060, 4′-chloro-N-(2-(5-chloro-1H-indol-3-yl)ethyl)biphenyl-3-carboxamide], 6.80. `O=C(NCCc1c[nH]c2ccc(Cl)cc12)c1ccc(-c2ccc(Cl)cc2)cc1` [Cpd061, 4′-chloro-N-(2-(5-chloro-1H-indol-3-yl)ethyl)biphenyl-4-carboxamide] gave a pEC50 of 6.95. Under `O=C(NCCc1c[nH]c2ccc(Cl)cc12)c1ccccc1-c1ccc(Cl)cc1` [Cpd063, 4′-chloro-N-(2-(5-chloro-1H-indol-3-yl)ethyl)biphenyl-2-carboxamide] stands 6.81; under `O=C(NCCc1c[nH]c2ccc(Cl)cc12)c1ccccc1-c1cccc(C(F)(F)F)c1` [Cpd064, N-(2-(5-chloro-1H-indol-3-yl)ethyl)-3′-(trifluoromethyl)biphenyl-2-carboxamide], 6.38. For the compound `O=C(NCCc1c[nH]c2ccc(Cl)cc12)c1cccc(-c2ccccc2C(F)(F)F)c1` [Cpd065, N-(2-(5-chloro-1H-indol-3-yl)ethyl)-2′-(trifluoromethyl)biphenyl-3-carboxamide], the pEC50 is 7.05.

The compound `O=C(NCCc1c[nH]c2ccc(Cl)cc12)c1ccc(-c2cccc(C(F)(F)F)c2)cc1` [Cpd066, N-(2-(5-chloro-1H-indol-3-yl)ethyl)-3′-(trifluoromethyl)biphenyl-4-carboxamide] gave a pEC50 of 7.04. `O=C(NCCc1c[nH]c2ccc(Cl)cc12)c1cccc(-c2ccc(C(F)(F)F)cc2)c1` [Cpd068, N-(2-(5-chloro-1H-indol-3-yl)ethyl)-4′-(trifluoromethyl)biphenyl-3-carboxamide]: the pEC50 is 6.44.

The compound `Cc1cccc(C)c1-c1cccc(C(=O)NCCc2c[nH]c3ccc(Cl)cc23)c1` [Cpd070, N-(2-(5-chloro-1H-indol-3-yl)ethyl)-2′,6′-dimethylbiphenyl-3-carboxamide] had a pEC50 of 6.22.

On to `Cc1ccc(-c2ccccc2C(=O)NCCc2c[nH]c3ccc(Cl)cc23)cc1C` [Cpd071, N-(2-(5-chloro-1H-indol-3-yl)ethyl)-3′,4′-dimethylbiphenyl-2-carboxamide], for which the pEC50 is 6.26.

In turn, `O=C(NCCc1c[nH]c2ccc(Cl)cc12)c1ccc(-c2ccc(C(F)(F)F)cc2)cc1` [Cpd074, N-(2-(5-chloro-1H-indol-3-yl)ethyl)-4′-(trifluoromethyl)biphenyl-4-carboxamide] showed a pEC50 of 6.70.

On to `O=C(NCCc1c[nH]c2ccc(Cl)cc12)c1ccc(-c2ccccc2)nn1` [Cpd075, N-(2-(5-chloro-1H-indol-3-yl)ethyl)-6-phenylpyridazine-3-carboxamide], for which the pEC50 is 7.09.

Usually pEC50 stands for −log10 of the EC50, conventionally taken in molar units. Read a high pEC50 as a low EC50.

The values are drawn from US9284271B2, “Compounds for the treatment of neurodegenerative diseases” (Katholieke Universiteit Leuven, K.U. Leuven R&D, priority 2010, dated 2016).
